Source: PubChem BioAssay (NCI)
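Cultured in 96-well plates, cells were exposed to test compound for 48 hours across five concentrations. Definition used: TGI = concentration required for complete inhibition of growth.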

What was measured:
Experiment in all cases: inhibition of tumour cell growth, NCI panel, 48 h
HS 578T breast = test system: HS 578T breast
SNB-75 CNS = test system: SNB-75 CNS
MDA-N = test system: MDA-N
SR leukemia = test system: SR leukemia
SF-539 CNS = test system: SF-539 CNS
T-47D breast = test system: T-47D breast
SK-MEL-28 melanoma = test system: SK-MEL-28 melanoma
HL-60(TB) leukemia = test system: HL-60(TB) leukemia
SW-620 colon = test system: SW-620 colon
NCI-H460 lung = test system: NCI-H460 lung
MCF7 breast = test system: MCF7 breast
MDA-MB-231 breast = test system: MDA-MB-231 breast
LOX IMVI melanoma = test system: LOX IMVI melanoma
ACHN renal = test system: ACHN renal
COLO 205 colon = test system: COLO 205 colon
PC-3 prostate = test system: PC-3 prostate
BT-549 breast = test system: BT-549 breast
HOP-62 NSCLC = test system: HOP-62 NSCLC
UO-31 renal = test system: UO-31 renal
HT29 colon = test system: HT29 colon
NCI-H226 lung = test system: NCI-H226 lung
SN12C renal = test system: SN12C renal
OVCAR-3 ovarian = test system: OVCAR-3 ovarian
NCI-H522 lung = test system: NCI-H522 lung
NCI/ADR-RES ovarian = test system: NCI/ADR-RES ovarian
MALME-3M melanoma = test system: MALME-3M melanoma
HCT-15 colon = test system: HCT-15 colon
HOP-92 NSCLC = test system: HOP-92 NSCLC
K-562 leukemia = test system: K-562 leukemia
TK-10 renal = test system: TK-10 renal
UACC-257 melanoma = test system: UACC-257 melanoma
M14 melanoma = test system: M14 melanoma
MOLT-4 leukemia = test system: MOLT-4 leukemia
NCI-H23 lung = test system: NCI-H23 lung
SF-268 CNS = test system: SF-268 CNS
U251 CNS = test system: U251 CNS
CAKI-1 renal = test system: CAKI-1 renal
RXF 393 renal = test system: RXF 393 renal
HCC-2998 colon = test system: HCC-2998 colon
SK-MEL-2 melanoma = test system: SK-MEL-2 melanoma
IGROV1 ovarian = test system: IGROV1 ovarian
MDA-MB-435 = test system: MDA-MB-435
RPMI-8226 leukemia = test system: RPMI-8226 leukemia
A549 NSCLC = test system: A549 NSCLC
SK-MEL-5 melanoma = test system: SK-MEL-5 melanoma
EKVX NSCLC = test system: EKVX NSCLC
OVCAR-5 ovarian = test system: OVCAR-5 ovarian
OVCAR-8 ovarian = test system: OVCAR-8 ovarian
A498 renal = test system: A498 renal
KM12 colon = test system: KM12 colon
DU-145 prostate = test system: DU-145 prostate
SNB-19 CNS = test system: SNB-19 CNS
SF-295 CNS = test system: SF-295 CNS
786-0 renal = test system: 786-0 renal
SK-OV-3 ovarian = test system: SK-OV-3 ovarian
UACC-62 melanoma = test system: UACC-62 melanoma
CCRF-CEM leukemia = test system: CCRF-CEM leukemia
OVCAR-4 ovarian = test system: OVCAR-4 ovarian
HCT-116 colon = test system: HCT-116 colon

With `C[C@]12CC[C@H](OC(=O)Cc3ccc(N(CCCl)CCCl)cc3)CC1=CC[C@@H]1[C@@H]2CC[C@]2(C)C(=O)CC[C@@H]12` the TGI (HS 578T breast) was greater than 100 µM, the TGI (SNB-75 CNS) was greater than 100 µM and the TGI (MDA-N) was greater than 100 µM. It also gave a TGI (SR leukemia) greater than 100 µM, a TGI (SF-539 CNS) greater than 100 µM and a TGI (T-47D breast) greater than 100 µM. It also gave a TGI (SK-MEL-28 melanoma) greater than 100 µM, a TGI (HL-60(TB) leukemia) greater than 100 µM and a TGI (SW-620 colon) greater than 100 µM. It also gave a TGI (NCI-H460 lung) greater than 100 µM, a TGI (MCF7 breast) greater than 100 µM and a TGI (MDA-MB-231 breast) greater than 100 µM. It also gave a TGI (LOX IMVI melanoma) greater than 100 µM, a TGI (ACHN renal) greater than 100 µM and a TGI (COLO 205 colon) greater than 100 µM. It also gave a TGI (PC-3 prostate) greater than 100 µM, a TGI (BT-549 breast) greater than 100 µM and a TGI (HOP-62 NSCLC) greater than 100 µM. The TGI (UO-31 renal) was greater than 100 µM, the TGI (HT29 colon) was greater than 100 µM and the TGI (NCI-H226 lung) was greater than 100 µM. The TGI (SN12C renal) was greater than 100 µM, the TGI (OVCAR-3 ovarian) was greater than 100 µM and the TGI (NCI-H522 lung) was greater than 100 µM. It also gave a TGI (NCI/ADR-RES ovarian) greater than 100 µM, a TGI (MALME-3M melanoma) greater than 100 µM and a TGI (HCT-15 colon) greater than 100 µM. It also gave a TGI (HOP-92 NSCLC) greater than 100 µM, a TGI (K-562 leukemia) greater than 100 µM and a TGI (TK-10 renal) greater than 100 µM. The TGI (UACC-257 melanoma) was greater than 100 µM, the TGI (M14 melanoma) was greater than 100 µM and the TGI (MOLT-4 leukemia) was greater than 100 µM. It also gave a TGI (NCI-H23 lung) greater than 100 µM, a TGI (SF-268 CNS) greater than 100 µM and a TGI (U251 CNS) greater than 100 µM. For the same compound, the TGI (CAKI-1 renal) was greater than 100 µM, the TGI (RXF 393 renal) was greater than 100 µM and the TGI (HCC-2998 colon) was greater than 100 µM. The TGI (SK-MEL-2 melanoma) was greater than 100 µM, the TGI (IGROV1 ovarian) was greater than 100 µM and the TGI (MDA-MB-435) was greater than 100 µM. For the same compound, the TGI (RPMI-8226 leukemia) was greater than 100 µM, the TGI (A549 NSCLC) was greater than 100 µM and the TGI (SK-MEL-5 melanoma) was greater than 100 µM. For the same compound, the TGI (EKVX NSCLC) was greater than 100 µM, the TGI (OVCAR-5 ovarian) was greater than 100 µM and the TGI (OVCAR-8 ovarian) was greater than 100 µM. It also gave a TGI (A498 renal) greater than 100 µM, a TGI (KM12 colon) greater than 100 µM and a TGI (DU-145 prostate) greater than 100 µM. For the same compound, the TGI (SNB-19 CNS) was greater than 100 µM.

With `OC1(c2ccc(Cl)cc2)C(N2CCCC2)c2ccccc2C2=NCCN21` (configuration not stated) the TGI (HS 578T breast) was 89.9 µM, the TGI (MDA-N) was 51.4 µM and the TGI (SR leukemia) was 41.1 µM. The TGI (SF-539 CNS) was 39.4 µM, the TGI (SF-295 CNS) was 30.9 µM and the TGI (T-47D breast) was 41 µM. For the same compound, the TGI (SK-MEL-28 melanoma) was 31.9 µM, the TGI (HL-60(TB) leukemia) was 50.7 µM and the TGI (SW-620 colon) was greater than 100 µM. It also gave a TGI (NCI-H460 lung) greater than 100 µM, a TGI (MCF7 breast) of 94.8 µM and a TGI (MDA-MB-231 breast) greater than 100 µM. It also gave a TGI (LOX IMVI melanoma) of 36.7 µM, a TGI (ACHN renal) greater than 100 µM and a TGI (COLO 205 colon) of 23.9 µM. For the same compound, the TGI (PC-3 prostate) was greater than 100 µM, the TGI (BT-549 breast) was 65.2 µM and the TGI (HOP-62 NSCLC) was greater than 100 µM. It also gave a TGI (UO-31 renal) greater than 100 µM, a TGI (786-0 renal) greater than 100 µM and a TGI (HT29 colon) of 32.4 µM. It also gave a TGI (SK-OV-3 ovarian) of 57.6 µM, a TGI (SN12C renal) greater than 100 µM and a TGI (OVCAR-3 ovarian) greater than 100 µM. For the same compound, the TGI (NCI/ADR-RES ovarian) was 59.9 µM, the TGI (MALME-3M melanoma) was 36.9 µM and the TGI (HCT-15 colon) was greater than 100 µM. The TGI (HOP-92 NSCLC) was 62.9 µM, the TGI (K-562 leukemia) was 47.5 µM and the TGI (TK-10 renal) was 40 µM. It also gave a TGI (UACC-257 melanoma) of 40.6 µM, a TGI (M14 melanoma) of 31.7 µM and a TGI (MOLT-4 leukemia) of 93.8 µM. It also gave a TGI (NCI-H23 lung) of 92.7 µM, a TGI (SF-268 CNS) greater than 100 µM and a TGI (U251 CNS) greater than 100 µM. For the same compound, the TGI (CAKI-1 renal) was 94.6 µM, the TGI (UACC-62 melanoma) was 41.3 µM and the TGI (RXF 393 renal) was 91.9 µM. For the same compound, the TGI (CCRF-CEM leukemia) was greater than 100 µM, the TGI (SK-MEL-2 melanoma) was 45 µM and the TGI (IGROV1 ovarian) was 52.7 µM. It also gave a TGI (MDA-MB-435) of 86.7 µM, a TGI (RPMI-8226 leukemia) of 32.1 µM and a TGI (A549 NSCLC) greater than 100 µM. For the same compound, the TGI (OVCAR-4 ovarian) was 87.9 µM, the TGI (SK-MEL-5 melanoma) was 28.4 µM and the TGI (EKVX NSCLC) was greater than 100 µM. For the same compound, the TGI (OVCAR-5 ovarian) was greater than 100 µM, the TGI (OVCAR-8 ovarian) was 58.8 µM and the TGI (HCT-116 colon) was 46.6 µM. It also gave a TGI (A498 renal) of 60.9 µM, a TGI (KM12 colon) of 60 µM and a TGI (DU-145 prostate) greater than 100 µM. For the same compound, the TGI (SNB-19 CNS) was greater than 100 µM.
